Measured values: ChEMBL document CHEMBL4706484, “Apigenin-rivastigmine hybrids as multi-target-directed liagnds for the treatment of Alzheimer's disease” (Eur J Med Chem, 2020)
Active and inactive are the calls of the source. The rule behind the calls is not given here.

Experiments:
[1] = Antioxidant activity of compound assessed as trolox equivalent antioxidant capacity by ORAC-FL assay; assay type: functional
Acetylcholinesterase [2] = molecular target: T1, Acetylcholinesterase (Rattus norvegicus, UniProt P37136); test: Inhibition of rat cortex AChE using acetylthiocholine iodide as substrate measured after 15 mins by Ellman's method; assay type: tissue-based
T1 sequence (P37136 whole entry): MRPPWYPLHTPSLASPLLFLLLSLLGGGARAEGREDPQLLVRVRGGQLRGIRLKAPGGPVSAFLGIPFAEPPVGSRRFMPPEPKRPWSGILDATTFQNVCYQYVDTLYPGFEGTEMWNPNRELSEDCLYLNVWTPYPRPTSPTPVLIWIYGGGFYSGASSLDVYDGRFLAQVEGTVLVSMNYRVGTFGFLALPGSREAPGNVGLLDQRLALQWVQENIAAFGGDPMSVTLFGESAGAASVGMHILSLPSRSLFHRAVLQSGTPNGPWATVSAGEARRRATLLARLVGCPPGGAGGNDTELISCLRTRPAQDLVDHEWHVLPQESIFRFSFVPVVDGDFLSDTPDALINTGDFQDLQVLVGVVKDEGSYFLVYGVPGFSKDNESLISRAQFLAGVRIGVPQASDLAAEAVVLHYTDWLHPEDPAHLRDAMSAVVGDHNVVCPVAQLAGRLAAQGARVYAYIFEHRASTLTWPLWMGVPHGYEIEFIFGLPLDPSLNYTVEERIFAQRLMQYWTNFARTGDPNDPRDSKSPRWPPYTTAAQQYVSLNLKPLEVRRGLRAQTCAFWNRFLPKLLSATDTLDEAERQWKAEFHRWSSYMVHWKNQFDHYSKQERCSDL

Butyrylcholinesterase = Butyrylcholinesterase (Rattus norvegicus, UniProt Q9JKC1); test: Inhibition of rat serum BChE using acetylthiocholine iodide as substrate measured after 15 mins by Ellman's method; assay type: cell-free
[3] = Permeability of the compound in PBS/EtOH (70:30) at 100 ug/ml by PAMPA-BBB assay; assay type: ADME; settings: dose 100 µg/ml, read-out: permeability
Acetylcholinesterase [4] = molecular target: T2, Acetylcholinesterase (Homo sapiens, UniProt P22303); test: Inhibition of human erythrocytes AChE using acetylthiocholine iodide as substrate measured after 15 mins by Ellman's method; assay type: tissue-based, Erythrocyte
Cholinesterase [5] = molecular target: T3, Cholinesterase (Homo sapiens, UniProt P06276); test: Inhibition of human serum BChE using acetylthiocholine iodide as substrate measured after 15 mins by Ellman's method; assay type: cell-free
[6] = molecular target: Amyloid-beta precursor protein (Homo sapiens) (UniProt P05067); test: Inhibition of self-induced amyloid beta (1 to 42) (unknown origin) aggregation at 25 uM by ThT fluorescence assay relative to control
[7] = molecular target: Amyloid-beta precursor protein (Homo sapiens) (UniProt P05067); test: Disaggregation of self-induced amyloid beta (1 to 42) (unknown origin) preformed fibrils at 25 uM by ThT fluorescence assay relative to control
[8] = molecular target: Amyloid-beta precursor protein (Homo sapiens) (UniProt P05067); test: Inhibition of self-induced amyloid beta (1 to 42) (unknown origin) aggregation at 25 uM measured after 24 hrs by TEM analysis
[9] = molecular target: Amyloid-beta precursor protein (Homo sapiens) (UniProt P05067); test: Disaggregation of self-induced amyloid beta (1 to 42) (unknown origin) preformed fibrils at 25 uM measured after 48 hrs by TEM analysis
PC-12 [10] = test: Cytotoxicity against rat PC-12 cells assessed as reduction in cell viability <= 100 uM measured after 48 hrs by MTT assay; assay type: cell-based; settings: pc-12, 48 h
[11] = Metal chelating activity assessed as Fe2+-compound complex formation at 37.5 uM in presence of 37.5 uM FeSO4 by UV-Vis spectrophotometric analysis
[12] = Metal chelating activity assessed as Zn2+-compound complex formation at 37.5 uM in presence of 37.5 uM ZnCl2 by UV-Vis spectrophotometric analysis
[13] = Metal chelating activity assessed as Cu2+-compound complex formation at 37.5 uM in presence of 37.5 uM CuCl2 by UV-Vis spectroscopic analysis
[14] = Metal chelating activity assessed as Al3+-compound complex formation at 37.5 uM in presence of 37.5 uM AlCl3 by UV-Vis spectrophotometric analysis
[15] = Cytotoxicity against human L02 cells assessed as cell viability at 6.25 uM measured after 72 hrs by MTT assay relative to control; assay type: cell-based; settings: read-out: Activity
[16] = Cytotoxicity against human L02 cells assessed as cell viability at 12.5 uM measured after 72 hrs by MTT assay relative to control; assay type: cell-based; settings: read-out: Activity
[17] = Cytotoxicity against human L02 cells assessed as cell viability at 25 uM measured after 72 hrs by MTT assay relative to control; assay type: cell-based; settings: read-out: Activity
[18] = Cytotoxicity against human L02 cells assessed as cell viability at 50 uM measured after 72 hrs by MTT assay relative to control; assay type: cell-based; settings: read-out: Activity
L02 = test: Hepatoprotective activity H2O2-induced cell injury in human L02 cells assessed as cell viability at 10 uM measured after 48 hrs by MTT assay (reference value: 56.89 %); assay type: functional; settings: read-out: Activity
[19] = Drug metabolism in rat liver microsomes assessed as metabolite formation by UPLC-MS/MS analysis; assay type: ADME, Microsome
[20] = Drug metabolism in human liver microsomes assessed as metabolite formation by UPLC-MS/MS analysis; assay type: ADME, Microsome
[21] = Drug metabolism in rat intestine assessed as metabolite formation by UPLC-MS/MS analysis; assay type: ADME, tissue-based
PC-12 [22] = test: Neuroprotective activity against H2O2-induced cell injury in rat PC-12 cells assessed as increase in cell viability causing decrease in LDH content preincubated for 2 hrs followed by H2O2 addition and measured after 24 hrs by LDH assay; assay type: functional, cell-based; settings: dose 5-10 µM, time 26.0 hrs
PC-12 [23] = test: Neuroprotective activity against H2O2-induced cell injury in rat PC12 cells assessed as cell viability preincubated for 2 hrs followed by H2O2 addition and measured after 24 hrs by MTT assay (reference value: 53.8 %); assay type: functional; settings: time 26 hrs
Cholinesterase [24] = molecular target: T3, Cholinesterase; test: Pseudo-irreversible inhibition of human serum BChE assessed as enzyme recovery activity at IC50 using diluted compound relative to control; assay type: cell-free; parameters: scale not given: the % may be the effect or the level left
Cholinesterase [25] = molecular target: T3, Cholinesterase; test: Pseudo-irreversible inhibition of human serum BChE assessed as enzyme recovery activity at 0.1 times IC50 using diluted compound relative to control; assay type: cell-free; parameters: scale not given: the % may be the effect or the level left
Acetylcholinesterase [26] = molecular target: T2, Acetylcholinesterase; test: Pseudo-irreversible inhibition of human erythrocytes AChE assessed as enzyme recovery activity at 0.1 times IC50 measured at 120 mins using diluted compound relative to control; assay type: tissue-based; parameters: scale not given: the % may be the effect or the level left; settings: Erythrocyte
Cholinesterase [27] = molecular target: T3, Cholinesterase; test: Pseudo-irreversible inhibition of human serum BChE assessed as enzyme recovery activity at 0.1 times IC50 measured immediately using diluted compound; assay type: cell-free; parameters: scale not given: the % may be the effect or the level left
Mus musculus [28] = test: Cognitive enhancing effect in scopolamine-induced Kunming mouse model of memory impairment assessed as effect on total arm entries at 6 mg/kg by Y-maze test; assay type: functional, organism-based
Mus musculus [29] = test: Reversal of scopolamine-induced Kunming mouse model of memory impairment assessed as spontaneous alteration at 6 mg/kg by Y-maze test (reference value: 41.6 %); assay type: functional

Sequence of Amyloid-beta precursor protein (Homo sapiens) (P05067 whole entry): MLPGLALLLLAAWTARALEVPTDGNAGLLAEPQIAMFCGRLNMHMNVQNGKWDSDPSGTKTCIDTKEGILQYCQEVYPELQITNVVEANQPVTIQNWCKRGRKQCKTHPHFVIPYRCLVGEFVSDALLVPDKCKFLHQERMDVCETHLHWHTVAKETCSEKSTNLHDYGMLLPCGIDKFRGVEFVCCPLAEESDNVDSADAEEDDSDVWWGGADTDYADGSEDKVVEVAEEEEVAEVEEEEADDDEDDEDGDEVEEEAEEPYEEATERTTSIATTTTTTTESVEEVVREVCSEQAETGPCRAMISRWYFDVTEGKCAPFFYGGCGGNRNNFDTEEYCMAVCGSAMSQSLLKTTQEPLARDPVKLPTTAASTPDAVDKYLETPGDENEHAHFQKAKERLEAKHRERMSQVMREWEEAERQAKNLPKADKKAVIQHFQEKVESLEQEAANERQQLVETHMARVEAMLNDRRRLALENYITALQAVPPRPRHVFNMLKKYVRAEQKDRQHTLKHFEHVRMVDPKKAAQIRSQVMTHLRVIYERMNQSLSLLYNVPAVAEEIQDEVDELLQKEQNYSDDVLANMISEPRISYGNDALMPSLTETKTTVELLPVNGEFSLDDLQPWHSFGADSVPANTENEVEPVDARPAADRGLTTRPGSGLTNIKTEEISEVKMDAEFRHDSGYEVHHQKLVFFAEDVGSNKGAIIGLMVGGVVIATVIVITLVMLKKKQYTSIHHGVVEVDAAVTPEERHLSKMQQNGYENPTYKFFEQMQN
T3 sequence (P06276 whole entry): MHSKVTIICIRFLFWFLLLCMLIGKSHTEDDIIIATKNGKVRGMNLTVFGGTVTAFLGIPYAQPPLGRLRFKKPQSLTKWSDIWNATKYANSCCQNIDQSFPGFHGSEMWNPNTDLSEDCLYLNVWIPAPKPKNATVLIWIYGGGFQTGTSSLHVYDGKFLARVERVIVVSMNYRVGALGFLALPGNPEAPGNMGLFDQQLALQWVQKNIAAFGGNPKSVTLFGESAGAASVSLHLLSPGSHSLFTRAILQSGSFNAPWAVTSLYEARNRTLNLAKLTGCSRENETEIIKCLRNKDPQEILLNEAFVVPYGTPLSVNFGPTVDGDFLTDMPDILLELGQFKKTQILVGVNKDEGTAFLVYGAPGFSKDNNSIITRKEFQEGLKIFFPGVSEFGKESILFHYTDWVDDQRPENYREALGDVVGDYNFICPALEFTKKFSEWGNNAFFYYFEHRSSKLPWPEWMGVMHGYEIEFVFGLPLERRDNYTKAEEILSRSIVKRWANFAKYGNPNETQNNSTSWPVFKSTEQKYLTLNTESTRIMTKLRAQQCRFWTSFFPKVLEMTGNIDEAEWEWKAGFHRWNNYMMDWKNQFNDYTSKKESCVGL
T2 sequence (P22303 whole entry): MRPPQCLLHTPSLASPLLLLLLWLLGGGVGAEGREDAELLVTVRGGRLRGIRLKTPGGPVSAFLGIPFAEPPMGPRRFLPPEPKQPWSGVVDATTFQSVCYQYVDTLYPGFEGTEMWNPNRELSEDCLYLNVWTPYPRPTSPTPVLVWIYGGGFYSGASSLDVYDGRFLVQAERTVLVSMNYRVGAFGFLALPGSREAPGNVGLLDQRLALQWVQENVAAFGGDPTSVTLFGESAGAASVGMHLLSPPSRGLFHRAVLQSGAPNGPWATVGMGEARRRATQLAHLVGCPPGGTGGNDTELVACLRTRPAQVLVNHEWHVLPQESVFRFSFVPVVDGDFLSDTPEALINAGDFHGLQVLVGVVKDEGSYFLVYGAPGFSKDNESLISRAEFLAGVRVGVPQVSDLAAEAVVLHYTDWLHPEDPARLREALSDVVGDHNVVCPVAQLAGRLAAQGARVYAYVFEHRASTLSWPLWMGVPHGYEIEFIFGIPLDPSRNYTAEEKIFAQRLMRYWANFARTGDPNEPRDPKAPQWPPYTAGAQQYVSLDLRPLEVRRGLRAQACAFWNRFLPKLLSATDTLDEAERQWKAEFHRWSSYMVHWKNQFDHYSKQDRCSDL
Sequence of Butyrylcholinesterase (Q9JKC1 whole entry): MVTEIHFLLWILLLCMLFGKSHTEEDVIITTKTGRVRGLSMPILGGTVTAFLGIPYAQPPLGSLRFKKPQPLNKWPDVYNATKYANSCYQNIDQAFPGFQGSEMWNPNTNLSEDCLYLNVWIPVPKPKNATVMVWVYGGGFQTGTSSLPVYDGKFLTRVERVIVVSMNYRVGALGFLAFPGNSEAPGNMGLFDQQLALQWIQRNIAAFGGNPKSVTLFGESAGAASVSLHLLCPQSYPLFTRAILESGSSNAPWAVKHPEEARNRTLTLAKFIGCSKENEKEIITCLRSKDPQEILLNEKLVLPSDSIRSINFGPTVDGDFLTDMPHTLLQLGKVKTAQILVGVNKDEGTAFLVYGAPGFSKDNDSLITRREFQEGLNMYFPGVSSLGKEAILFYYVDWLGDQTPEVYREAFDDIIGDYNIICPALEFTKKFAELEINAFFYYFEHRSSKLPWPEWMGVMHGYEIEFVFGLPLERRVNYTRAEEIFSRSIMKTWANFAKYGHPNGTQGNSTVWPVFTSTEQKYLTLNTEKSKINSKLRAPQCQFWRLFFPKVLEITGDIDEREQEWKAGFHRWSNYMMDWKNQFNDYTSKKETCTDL

## O=c1cc(-c2ccc(O)cc2)oc2cc(O)cc(O)c12 [APIGENIN]
[1]
  Activity: 5.2 equiv
Acetylcholinesterase [2]
  IC50: > 500 µM
Butyrylcholinesterase
  IC50: > 500 µM
[3]
  Papp at 100 ug/ml: 1.68 ×10⁻⁶ cm/s

## CCN(C)C(=O)Oc1ccc(-c2cc(=O)c3c(OC(=O)N(C)CC)cc(OC(=O)N(C)CC)cc3o2)cc1
[1]
  Activity: 0.1 equiv
Acetylcholinesterase [2]
  IC50: 5.1 µM
Butyrylcholinesterase
  IC50: 16.2 µM
Acetylcholinesterase [4]
  IC50: 9.2 µM
Cholinesterase [5]
  IC50: 19.5 µM
[6]
  inhibition: 35.1%
[7]
  Activity: 40.6%
[8]
  inhibition: Active
[9]
  Activity: Active
PC-12 [10]
  Activity: Non-Toxic
[11]
  Activity: inactive
[12]
  Activity: inactive
[13]
  Activity: inactive
[14]
  Activity: inactive
[15]
  viability at 72 h, 6.25 µM: 98%
[16]
  viability at 72 h, 12.5 µM: 98.5%
[17]
  viability at 72 h, 25 µM: 89.8%
[18]
  viability at 72 h, 50 µM: 69.2%
L02
  viability at 10 µM: 62.7%
[3]
  Papp at 100 ug/ml: 19.2 ×10⁻⁶ cm/s
[19]
  Drug metabolism: Metabolite_Detected
[20]
  Drug metabolism: Metabolite_Detected
[21]
  Drug metabolism: Metabolite_Detected

## CN(C)C(=O)Oc1ccc(-c2cc(=O)c3c(OC(=O)N(C)C)cc(OC(=O)N(C)C)cc3o2)cc1
[1]
  Activity: 0.2 equiv
Acetylcholinesterase [2]
  IC50: 8.3 µM
Butyrylcholinesterase
  IC50: 23.1 µM
[6]
  inhibition: 38.3%

## Cc1c(C)c2c(c(C)c1O)CCC(C)(C(=O)O)O2 (stereo not drawn) [TROLOX]
PC-12 [22]
  Activity: Active
PC-12 [23]
  Activity: 68.8%

## CCN(C)C(=O)Oc1cccc([C@H](C)N(C)C)c1 [RIVASTIGMINE]
Cholinesterase [24]
  Activity: 58.3%
Cholinesterase [25]
  Activity: 43.2%
Acetylcholinesterase [26]
  Activity: 81.4%
Cholinesterase [27]
  Activity: 43.2%
Mus musculus [28]
  Activity: inactive
Mus musculus [29]
  Activity: 64.6%

## CON(C)C(=O)Oc1ccc(-c2cc(=O)c3c(OC(=O)N(C)OC)cc(OC(=O)N(C)OC)cc3o2)cc1
[1]
  Activity: 0.2 equiv
Acetylcholinesterase [2]
  IC50: 6 µM
Butyrylcholinesterase
  IC50: 18.2 µM
Acetylcholinesterase [4]
  IC50: 12.7 µM
Cholinesterase [5]
  IC50: 24.3 µM
[6]
  inhibition: 36%

## O=C(Oc1ccc(-c2cc(=O)c3c(OC(=O)N4CCOCC4)cc(OC(=O)N4CCOCC4)cc3o2)cc1)N1CCOCC1
[1]
  Activity: 0.2 equiv
Acetylcholinesterase [2]
  IC50: 10.2 µM
Butyrylcholinesterase
  IC50: 23.8 µM
[6]
  inhibition: 31.2%

## CCN(CC)C(=O)Oc1ccc(-c2cc(=O)c3c(O)cc(OC(=O)N(CC)CC)cc3o2)cc1
[1]
  Activity: 1.2 equiv
Acetylcholinesterase [2]
  IC50: 7.8 µM
Butyrylcholinesterase
  IC50: 16.4 µM
[6]
  inhibition: 77.8%
